We go through two compounds from paper PMC12165925 (Natural Products and Bioprospecting, 2025).

The structures appear in SMILES notation.

What is called IC50 is the concentration that inhibits the measured activity by half.

Holding throughout (test): microbe, parasite or virus in culture
Format in all cases: cell-based
Conditions in all cases: hACE2-HEK293T cells

In experiment [1] the test system is SARS-CoV-2-S pseudovirus Omicron variant.
The test system of experiment [2] is SARS-CoV-2-S pseudovirus Delta variant.
Experiment [3] relates to SARS-CoV-2-S pseudovirus Gamma variant.

As to `C[C@@H]1O[C@@H](O[C@H]2[C@H](OC(=O)[C@]34CCC(C)(C)C[C@H]3C3=CC[C@@H]5[C@@]6(C)C[C@H](O)[C@H](O[C@@H]7O[C@H](CO)[C@@H](O)[C@H](O)[C@H]7O)C(CO)(CO)[C@@H]6CC[C@@]5(C)[C@]3(C)C[C@H]4O)OC[C@H](O)[C@@H]2O)[C@H](O)[C@H](O)[C@H]1O[C@@H]1OC[C@@H](O)[C@H](O)[C@H]1O` [DPD, Deapio platycodin D], the IC50 in experiment [1] stood at 1.03 ± 0.02 µM; in experiment [2], 0.83 ± 0.07 µM; in experiment [3] it was 1 ± 0.04 µM.

For the compound `Oc1cc(O)c2cc(O)c(-c3cc(O)c(O)c(O)c3)[o+]c2c1` [Delphinidin], the IC50 in experiment [1] is 10.8 ± 0.68 µM; in experiment [2] it was over 200 µM; in experiment [3], over 200 µM.
